# Biological target: T1, human IDO1 (Homo sapiens, UniProt P14902)
# T1 construct: expressed in transfected cells
# Experiment: HEK293 human IDO1 cell-based IDO inhibition assay
# Conditions: HEK293 cells stably expressing human IDO1; 20 hours incubation; absorbance at 490 nm (Ehrlich reagent); 500 nM reference standard = 100% inhibition; read-out: HEK Human IDO-1 Potency
# Summary of the method: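 HEK293 cells stably expressing human IDO1, 10,000/well in RPMI with 10% FBS, treated with compound 20 h at 37 °C. Stopped with 0.2% final TCA, 50 °C for 30 min; supernatant mixed with 0.2% Ehrlich reagent in acetic acid, 30 min RT, absorbance read at 490 nm.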
# T1 sequence (P14902 whole entry): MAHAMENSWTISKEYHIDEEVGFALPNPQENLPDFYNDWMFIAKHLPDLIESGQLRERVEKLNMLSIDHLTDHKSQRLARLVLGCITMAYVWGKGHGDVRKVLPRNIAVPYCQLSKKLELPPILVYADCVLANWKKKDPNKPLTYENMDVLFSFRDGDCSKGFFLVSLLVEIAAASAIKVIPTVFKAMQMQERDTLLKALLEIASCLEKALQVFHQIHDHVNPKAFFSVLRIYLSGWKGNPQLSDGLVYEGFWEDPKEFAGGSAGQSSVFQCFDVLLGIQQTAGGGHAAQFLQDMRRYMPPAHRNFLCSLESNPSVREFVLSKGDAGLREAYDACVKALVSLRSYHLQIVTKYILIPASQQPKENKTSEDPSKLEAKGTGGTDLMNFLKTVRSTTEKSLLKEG
row,Compound,IC50
1,N-(4-chlorophenyl)-2-(cis-4-(6-fluoroquinolin-4-yl)-1-hydroxycyclohexyl) propanamide [Example 231],< 0.25 µM
2,N-(4-chlorophenyl)-2-(cis-4-(6-fluoroquinolin-4-yl)-1-hydroxycyclohexyl) propanamide [Example 232],< 0.05 µM
3,N-(4-chlorophenyl)-2-(trans-4-(6-fluoroquinolin-4-yl)-1-hydroxycyclohexyl) propanamide [Example 229],< 0.05 µM
4,N-(4-chlorophenyl)-2-(trans-4-(6-fluoroquinolin-4-yl)-1-hydroxycyclohexyl) propanamide [Example 230],< 0.25 µM

# Same assay, conditions: read-out: HEK Human IDO-1 Potency
row,Compound,IC50
1,"C[C@@H](C(=O)Nc1ccc(Cl)cc1O)[C@H]1CC[C@@H](c2ccnc3ccc(F)cc32)CC1 [Example 238, (R)-N-(4-chloro-2-hydroxyphenyl)-2-(cis-4-(6-fluoroquinolin-4-yl)cyclohexyl)propanamide]",< 0.05 µM
2,"C[C@@H](C(=O)Nc1ccc(Cl)c(O)c1)[C@H]1CC[C@@H](c2ccnc3ccc(F)cc32)CC1 [Example 239, (R)-N-(4-chloro-3-hydroxyphenyl)-2-(cis-4-(6-fluoroquinolin-4-yl)cyclohexyl)propanamide]",< 0.05 µM
3,"C[C@@H](C(=O)NC1CC2CCC1C2)[C@H]1CC[C@@H](c2ccnc3ccc(F)cc32)CC1 (stereo partly drawn) [Example 240, (2R)-N-((2S)-bicyclo[2.2.1]heptan-2-yl)-2-(cis-4-(6-fluoroquinolin-4-yl)cyclohexyl)propanamide]",< 0.25 µM
4,"C=CC[C@@H](C(=O)Nc1ccc(Cl)cc1N)[C@H]1CC[C@@H](c2ccnc3ccc(F)cc32)CC1 [Example 241, (R)-N-(2-amino-4-chlorophenyl)-2-(cis-4-(6-fluoroquinolin-4-yl)cyclohexyl)pent-4-enamide]",< 0.05 µM
5,"CC1(CC(=O)NC2(C)CCCCC2)CCN(c2ccnc3ccc(F)cc23)CC1 [Example 242, 2-(1-(6-Fluoroquinolin-4-yl)-4-methylpiperidin-4-yl)-N-(1-methylcyclohexyl)acetamide]",< 0.05 µM
6,CCC(C(=O)Nc1ccc(C)cc1)N1CCC(Oc2ccnc3ccc(F)cc23)CC1 (stereo not drawn) [compound 97],< 0.25 µM
7,CCC(C(=O)Nc1ccc(Cl)cc1)N1CCC(Oc2ccnc3ccc(F)cc23)CC1 (stereo not drawn) [compound 98],< 0.25 µM
8,CC(C(=O)Nc1ccc(F)cc1)N1CCC(Oc2ccnc3ccc(F)cc23)CC1 (stereo not drawn) [compound 99],< 0.05 µM
9,CCOc1ccc(NC(=O)C(C)N2CCC(Oc3ccnc4ccc(F)cc34)CC2)cc1 (stereo not drawn) [compound 100],< 0.05 µM
10,Cc1ccc(NC(=O)C(C)N2CCC(Oc3ccnc4ccc(F)cc34)CC2)cc1 (stereo not drawn) [compound 101],< 0.05 µM
11,CCOc1ccc(NC(=O)C(C)N2CCC(Oc3ccnc4ccc(F)cc34)CC2)cc1 (stereo not drawn) [compound 107],< 0.05 µM
12,CCOc1ccc(NC(=O)C(C)N2CCC(Oc3ccnc4ccc(F)cc34)CC2)cc1 (stereo not drawn) [compound 108],< 0.25 µM
13,CCC(C(=O)Nc1ccc(Cl)cc1)N1CCC(Oc2ccnc3ccc(F)cc23)CC1 (stereo not drawn) [compound 111],< 0.25 µM
14,CCC(C(=O)Nc1ccc(Cl)cc1)N1CCC(Oc2ccnc3ccc(F)cc23)CC1 (stereo not drawn) [compound 112],> 0.25 µM
